Experimental data taken from patent publication US11415579B2, “Assay for measuring a rate of reaction between a target and a ligand candidate” (Imperial College Innovations Ltd., priority 2016, dated 2022).

How the values were obtained:
[1] = Kinetic thiol consumption assay with model thiol glutathione; assay type: physicochemical; parameters: Rate constant with glutathione (k(GSH)): unit not given here; conditions: 500 μM ligand, 5 μM thiol, phosphate buffer pH 8
Outline: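 GSH 5 μM, degassed phosphate buffer pH 8, TCEP beads 2% v/v; acrylamide added; RT, 1 h; fluorescence ex/em 380/470 nm; normalized to DMSO/thiol control; k from first-order exponential decay fit.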

[2] = biological target: T1, human cyclin-dependent kinase 2 (Cdk2) (Homo sapiens, UniProt P24941); experiment: Kinetic thiol consumption assay with wild type Cdk2 (C177); assay type: binding; parameters: Rate constant with Cdk2 (k(Cdk2)): unit not given here; conditions: for Rate constant with Cdk2 (k(Cdk2)): 500 μM ligand, 5 μM thiol, phosphate buffer pH 8; for k(Cdk2)/k(Cdk2_mut) rate enhancement: model thiol Cdk2[C177A, F80C, K278C]; for k(Cdk2)/k(GSH) rate enhancement: model thiol glutathione
T1 construct: poly-histidine; made in house; host or cells: E. coli
Outline: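 Thiol 5 μM (Cdk2 or model thiol), degassed phosphate buffer pH 8, TCEP beads 2% v/v. Plates incubated 1 h RT, ex/em 380/470 nm. First-order decay fit → rate constant; ratio Cdk2/model thiol = rate enhancement.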

Cdk2[C177A, F80C, K278C] = biological target: T2, Cdk2[C177A, F80C, K278C] (Homo sapiens, UniProt P24941, C177A/F80C/K278C); experiment: Kinetic thiol consumption assay with mutant Cdk2 as model thiol; assay type: binding; parameters: unit not given here; conditions: 500 μM ligand, 5 μM thiol, phosphate buffer pH 8
T2 construct: poly-histidine; made in house; host or cells: E. coli
Experimental: A library of 120 acrylamides was screened against a) human cyclin-dependent kinase 2 (Cdk2, which contains one surface exposed cysteine residue—C177), prepared by cloning cDNA into the pRSETA bacterial expression vector to generate a poly-histidine tagged Cdk2 fusion that was purified from E. coli using standard techniques, and b) a model thiol (specific details are given below). The structures of these 120 acrylamides are set out in Table 1, above.
To wells containing 150 μL thiol (Cdk2 or model thiol) (5 μM) in degassed phosphate buffer (pH 8) was added immobilized TCEP beads (2% v/v).
After incubation of the fluorescence plates for 1 hour at room temperature, fluorescence measurements (excitation/emission of 380/470 nm) were taken on a PerkinElmer EnVision multilabel plate reader and processed with EnVision Workstation version 1.12.
Fluorescence measurements were normalized against a DMSO/thiol only control and plotted against time.
Rate constants were calculated using GraphPad software Prism version 6 by fitting a first order exponential decay to the data. The rate constant for each acrylamide with Cdk2 was divided by the rate constant for that fragment with the model thiol to provide the rate enhancement for each ligand candidate.
The model thiol used in Example 2 is a mutant form of human Cdk2 (C177A, F80C, K278C) which contains two engineered surface exposed cysteine residues. Mutations were introduced by site-directed mutagenesis and the resulting cDNA was cloned into the pRSETA bacterial expression vector to generate a poly-histidine tagged Cdk2 fusion that was purified from E. coli using standard techniques.

Rate constant with Cdk2 (k(Cdk2)) [2]	k(Cdk2)/k(Cdk2_mut) rate enhancement [2]	k(Cdk2)/k(GSH) rate enhancement [2]	Rate constant with Cdk2[C177A, F80C, K278C] (k(Cdk2_mut)) (Cdk2[C177A, F80C, K278C])	Structure (SMILES)	Rate constant with glutathione (k(GSH)) [1]
0.02965	0.9818	0.8399	0.0302	C=CC(=O)N1CCn2c(C(=O)NC3CC3)ccc2C1C (stereo not shown) [CA-040]	0.0353
0.00879	1.851	5.108	0.00475	C=CC(=O)N(C1CC1)C1CCCCC1C1CCCCC1 (stereo not shown) [CA-081]	0.00172
0.0034	0.2652	0.3001	0.01283	C=CC(=O)N1CCCCCC1C/C=C/c1ccccc1 (stereo not shown) [CA-096]	0.01134
0.2899	18.23	1.26	0.0159	C=CC(=O)N(Cc1ccco1)Cc1ccco1 [CA-099]	0.23
0.00274	1.317	0.3553	0.00208	C=CC(=O)N1CCC2(CC1)NC(=O)C1(CCCCC1)N2 [CA-129]	0.00771
